Test results reported in patent US3954733A, “Naphthyridine-3-carboxamido-benzylpenicillins and salts thereof” (Sumitomo Chemical Company, Limited, priority 1973, dated 1976).
≈ marks a conversion by molar mass, not a printed value. Values belong to the compound of their own block, whether it stands above or below them.

Assays:
Pseudomonas = details: known penicillins and N-acyl ampicillins; cited from earlier work
[1] = system: gram-positive and gram-negative bacteria; details: known penicillins and N-acyl ampicillins; cited from earlier work
Escherichia coli NIHJ = assay: minimal inhibitory concentration, agar dilution method; type: cell-based
Excerpt: (§1) When determined according to the agar dilution method, the penicillins (I) afford the minimal inhibitory concentrations against test microorganisms as shown in Table 2.

[2] = system: Pseudomonas aeruginosa 104; assay: as above; type: cell-based
Excerpt: as §1

[3] = system: Staphylococcus aureus 209P; assay: as above; type: cell-based
Excerpt: as §1

Proteus miravilis GN2425 = assay: as above; type: cell-based
Proteus vulgaris HV19 = assay: as above; type: cell-based
[4] = system: Klebsiella pneumoniae PCI602; assay: as above; type: cell-based
Excerpt: as §1

Compound: 6-(α-amino-isothiazolylacetamido)penicillanic acid
- antimicrobial activity against Pseudomonas (Pseudomonas): do not exert any appreciable antimicrobial activity against Pseudomonas
- growth inhibition / antimicrobial activity against gram-positive and gram-negative bacteria [1]: inhibit the growth of various gram-positive and gram-negative bacteria

Compound: 6-(α-amino-thienylacetamido)penicillanic acid
- antimicrobial activity against Pseudomonas (Pseudomonas): do not exert any appreciable antimicrobial activity against Pseudomonas
- growth inhibition / antimicrobial activity against gram-positive and gram-negative bacteria [1]: inhibit the growth of various gram-positive and gram-negative bacteria

Compound: CC1(C)S[C@@H]2C(NC(=O)C(N)c3ccc(O)cc3)C(=O)N2[C@H]1C(=O)O (stereo partly drawn) [Amoxycillin, 6-(α-amino-p-hydroxyphenylacetamido)penicillanic acid, reference compound]
- MIC (Escherichia coli NIHJ): 12.5 µg/mL (≈ 34.2 µM)
- MIC [2]: > 200 µg/mL
- MIC [3]: 0.2 µg/mL (≈ 0.547 µM)
- MIC (Proteus miravilis GN2425): 3.13 µg/mL (≈ 8.57 µM)
- MIC (Proteus vulgaris HV19): 12.5 µg/mL (≈ 34.2 µM)
- antimicrobial activity against Pseudomonas (Pseudomonas): do not exert any appreciable antimicrobial activity against Pseudomonas
- growth inhibition / antimicrobial activity against gram-positive and gram-negative bacteria [1]: inhibit the growth of various gram-positive and gram-negative bacteria

Compound: CC1(C)S[C@@H]2C(NC(=O)C(N)c3ccccc3)C(=O)N2[C@H]1C(=O)O (stereo partly drawn) [Ampicillin, 6-(α-amino-phenylacetamido)penicillanic acid, reference compound]
- MIC (Escherichia coli NIHJ): 6.26 µg/mL (≈ 17.9 µM)
- MIC [3]: 0.1 µg/mL (≈ 0.286 µM)
- growth inhibition / antimicrobial activity against gram-positive and gram-negative bacteria [1]: inhibit the growth of various gram-positive and gram-negative bacteria

Compound: CC1(C)S[C@@H]2[C@H](NC(=O)C3(N)CCCCC3)C(=O)N2[C@H]1C(=O)O [Cyclacillin, 6-(1-amino-cyclohexane)carboxamidopenicillanic acid]
- antimicrobial activity against Pseudomonas (Pseudomonas): do not exert any appreciable antimicrobial activity against Pseudomonas
- growth inhibition / antimicrobial activity against gram-positive and gram-negative bacteria [1]: inhibit the growth of various gram-positive and gram-negative bacteria

Compound: CC1(C)S[C@@H]2[C@H](NC(=O)[C@H](N)C3=CCC=CC3)C(=O)N2[C@H]1C(=O)O [Epicillin, 6-[α-amino-2-(1,4-hexadienylacetamido)]penicillanic acid]
- antimicrobial activity against Pseudomonas (Pseudomonas): do not exert any appreciable antimicrobial activity against Pseudomonas
- growth inhibition / antimicrobial activity against gram-positive and gram-negative bacteria [1]: inhibit the growth of various gram-positive and gram-negative bacteria

Compound: Cc1nc(C)c2ncc(C(=O)N[C@@H](C(=O)N[C@@H]3C(=O)N4[C@@H]3SC(C)(C)[C@@H]4C(=O)O)c3ccc(O)cc3)c(O)c2n1 [Example 35]
- MIC (Escherichia coli NIHJ): 1.56 µg/mL (≈ 2.75 µM)
- MIC [2]: 1.56 µg/mL (≈ 2.75 µM)
- MIC [3]: 0.78 µg/mL (≈ 1.38 µM)
- MIC (Proteus miravilis GN2425): 1.56 µg/mL (≈ 2.75 µM)
- MIC (Proteus vulgaris HV19): 0.025 µg/mL (≈ 0.0441 µM)

Compound: CC1(C)S[C@@H]2[C@H](NC(=O)C(NC(=O)c3cnc4cccnc4c3S)c3cc(Cl)c(O)c(Cl)c3)C(=O)N2[C@H]1C(=O)O (stereo partly shown) [Example 40]
- MIC (Escherichia coli NIHJ): 12.5 µg/mL (≈ 20.1 µM)
- MIC [2]: 6.25 µg/mL (≈ 10 µM)
- MIC [3]: 1.56 µg/mL (≈ 2.51 µM)
- MIC (Proteus miravilis GN2425): 6.25 µg/mL (≈ 10 µM)
- MIC (Proteus vulgaris HV19): 0.2 µg/mL (≈ 0.321 µM)

Compound: COc1cnc2c(O)c(C(=O)N[C@@H](C(=O)N[C@@H]3C(=O)N4[C@@H]3SC(C)(C)[C@@H]4C(=O)O)c3ccc(O)cc3)cnc2n1 [Example 41]
- MIC (Escherichia coli NIHJ): 6.25 µg/mL (≈ 11 µM)
- MIC [2]: 3.13 µg/mL (≈ 5.51 µM)
- MIC [3]: 1.56 µg/mL (≈ 2.74 µM)
- MIC (Proteus miravilis GN2425): 6.25 µg/mL (≈ 11 µM)
- MIC (Proteus vulgaris HV19): 0.2 µg/mL (≈ 0.352 µM)

Compound: CC1(C)S[C@@H]2[C@H](NC(=O)[C@H](NC(=O)c3cnc4cccnc4c3S)c3ccc(O)cc3)C(=O)N2[C@H]1C(=O)O [Example 43]
- MIC (Escherichia coli NIHJ): 1.56 µg/mL (≈ 2.82 µM)
- MIC [2]: 1.56 µg/mL (≈ 2.82 µM)
- MIC [3]: 0.78 µg/mL (≈ 1.41 µM)
- MIC (Proteus miravilis GN2425): 1.56 µg/mL (≈ 2.82 µM)
- MIC (Proteus vulgaris HV19): 0.025 µg/mL (≈ 0.0452 µM)

Compound: CC1(C)S[C@@H]2[C@H](NC(=O)C(NC(=O)c3ccccn3)c3ccccc3)C(=O)N2[C@H]1C(=O)O (stereo partly shown) [R, reference compound]
- MIC (Escherichia coli NIHJ): 100 µg/mL (≈ 220 µM)
- MIC [4]: 50 µg/mL (≈ 110 µM)
- MIC [2]: 50 µg/mL (≈ 110 µM)
- MIC [3]: 0.78 µg/mL (≈ 1.72 µM)
- MIC (Proteus miravilis GN2425): 50 µg/mL (≈ 110 µM)

Other lines, results leading:

- MIC (Escherichia coli NIHJ): 3.13 µg/mL (≈ 5.23 µM)
- MIC [2]: 6.25 µg/mL (≈ 10.4 µM)
- MIC [3]: 0.78 µg/mL (≈ 1.3 µM)
- MIC (Proteus miravilis GN2425): 3.13 µg/mL (≈ 5.23 µM)
- MIC (Proteus vulgaris HV19): 0.1 µg/mL (≈ 0.167 µM)
Compound: CCOC(=O)Oc1ccc([C@@H](NC(=O)c2cnc3cn[nH]c3c2O)C(=O)N[C@@H]2C(=O)N3[C@@H]2SC(C)(C)[C@@H]3C(=O)O)cc1 [Example 33]

- MIC (Escherichia coli NIHJ): 1.56 µg/mL (≈ 2.9 µM)
- MIC [2]: 1.56 µg/mL (≈ 2.9 µM)
- MIC [3]: 0.78 µg/mL (≈ 1.45 µM)
- MIC (Proteus miravilis GN2425): 1.56 µg/mL (≈ 2.9 µM)
- MIC (Proteus vulgaris HV19): 0.05 µg/mL (≈ 0.0928 µM)
Compound: CC1(C)S[C@@H]2[C@H](NC(=O)[C@H](NC(=O)c3cnc4cncnc4c3O)c3ccc(O)cc3)C(=O)N2[C@H]1C(=O)O [Example 34]

- MIC (Escherichia coli NIHJ): 3.13 µg/mL (≈ 4.67 µM)
- MIC [2]: 3.13 µg/mL (≈ 4.67 µM)
- MIC [3]: 0.78 µg/mL (≈ 1.16 µM)
- MIC (Proteus miravilis GN2425): 3.13 µg/mL (≈ 4.67 µM)
- MIC (Proteus vulgaris HV19): 0.05 µg/mL (≈ 0.0746 µM)
Compound: CCOC(=O)Oc1ccc([C@@H](NC(=O)c2cnc3c(OC)nc(OC)nc3c2O)C(=O)N[C@@H]2C(=O)N3[C@@H]2SC(C)(C)[C@@H]3C(=O)O)cc1 [Example 36]

- MIC (Escherichia coli NIHJ): 1.56 µg/mL (≈ 2.29 µM)
- MIC [2]: 1.56 µg/mL (≈ 2.29 µM)
- MIC [3]: 0.78 µg/mL (≈ 1.14 µM)
- MIC (Proteus miravilis GN2425): 1.56 µg/mL (≈ 2.29 µM)
- MIC (Proteus vulgaris HV19): 0.025 µg/mL (≈ 0.0367 µM)
Compound: CCOC(=O)Oc1ccc([C@@H](NC(=O)c2cnc3cccnc3c2OC(=O)OCC)C(=O)N[C@@H]2C(=O)N3[C@@H]2SC(C)(C)[C@@H]3C(=O)O)cc1 [Example 37]

- MIC (Escherichia coli NIHJ): 1.56 µg/mL (≈ 2.49 µM)
- MIC [2]: 1.56 µg/mL (≈ 2.49 µM)
- MIC [3]: 0.78 µg/mL (≈ 1.25 µM)
- MIC (Proteus miravilis GN2425): 1.56 µg/mL (≈ 2.49 µM)
- MIC (Proteus vulgaris HV19): 0.05 µg/mL (≈ 0.0799 µM)
Compound: CCOC(=O)Oc1ccc([C@@H](NC(=O)c2cnc3cccnc3c2S)C(=O)N[C@@H]2C(=O)N3[C@@H]2SC(C)(C)[C@@H]3C(=O)O)cc1 [Example 39]

- MIC (Escherichia coli NIHJ): 3.13 µg/mL (≈ 5.08 µM)
- MIC [2]: 6.25 µg/mL (≈ 10.2 µM)
- MIC [3]: 0.78 µg/mL (≈ 1.27 µM)
- MIC (Proteus miravilis GN2425): 6.25 µg/mL (≈ 10.2 µM)
- MIC (Proteus vulgaris HV19): 0.2 µg/mL (≈ 0.325 µM)
Compound: CCOC(=O)Oc1ccc([C@@H](NC(=O)c2cnc3scnc3c2O)C(=O)N[C@@H]2C(=O)N3[C@@H]2SC(C)(C)[C@@H]3C(=O)O)cc1 [Example 42]
